Columns and labels:
[1] = Distribution of 99mTc-Sn-AEDP and 85Sr in rabbits, carrier effect of AEDP (Example 4); assay type: in vivo, rabbit; settings: 2 Hrs.
Description: Adult New Zealand albino rabbits having an average weight of 3.8 kg were utilized. Strontium-85 was employed as a standard for comparison. […] Each dosage is contained in a volume of 1 ml.
The animals were sacrificed serially from 1 to 24 hours after injection and the activities in major organs were determined by counting multiple samples from each organ in a scintillation well counter (the technetium-99m counts were corrected for the Compton contributions from the strontium-85 activity in the technetium-99m energy window). Multiple samples were counted from the tibia, femur, spine and pelvic bones; the total activity in the skeleton was estimated by assuming the whole skeleton consisted of equal proportions by weight of tibia, spine, femur and pelvis and that the skeletal mass was 10% of the body weight. The red marrow was sampled from the femur and the total marrow was assumed to be 2.2% of the total body weight. Similarly, blood volume was assumed to be 7% and the skeletal muscle 43% of the body weight. The whole liver and both kidneys were weighed and multiple samples from each were counted to measure the total activity in each organ.
In another series of experiments carried out as described in Example 2, the distribution of technetium 99m from its 99m-technetium-tin-methylene diphosphonate complex was determined in albino rabbits, again in comparison with strontium-85.
The distribution of technetium 99m from its 99m technetium-tin-1-amino-ethane-1,1-diphosphonate complex was determined as in Example 3 and compared with the distribution of strontium-85.

[2] = physical; cited from earlier work

## 99m technetium-tin-1-amino-ethane-1,1-diphosphonate complex [^99m Tc-Sn-AEDP]
[1]; AEDP 0.01 mg/kg
  Blood, % Dose in Whole Organ: 1.18 % Dose
  Blood, % dose/1% body weight: 0.168 % Dose/1% Body weight
  Bone Ave, % Dose/1% Body weight: 7.60 % Dose/1% Body weight
  Femur, % dose/1% body weight: 7.54 % Dose/1% Body weight
  Kidneys, % Dose in Whole Organ: 1.59 % Dose
  Kidneys, % dose/1% body weight: 2.72 % Dose/1% Body weight
  Liver, % Dose in Whole Organ: 1.69 % Dose
  Liver, % dose/1% body weight: 0.617 % Dose/1% Body weight
  Marrow, % Dose in Whole Organ: 0.657 % Dose
  Marrow, % dose/1% body weight: 0.300 % Dose/1% Body weight
  Muscle, % Dose in Whole Organ: 0.988 % Dose
  Muscle, % dose/1% body weight: 0.037 % Dose/1% Body weight
  Pelvis, % dose/1% body weight: 8.53 % Dose/1% Body weight
  Ratio of 99mTc/85Sr, Ave Bone: 0.735
  Ratio of 99mTc/85Sr, Blood: 0.406
  Ratio of 99mTc/85Sr, Femur: 0.720
  Ratio of 99mTc/85Sr, Kidney: 4.99
  Ratio of 99mTc/85Sr, Liver: 3.00
  Ratio of 99mTc/85Sr, Marrow: 1.27
  Ratio of 99mTc/85Sr, Muscle: 0.338
  Ratio of 99mTc/85Sr, Pelvis: 0.794
  Ratio of 99mTc/85Sr, Spine: 0.689
  Ratio of 99mTc/85Sr, Tibia: 0.710
  Spine, % dose/1% body weight: 6.20 % Dose/1% Body weight
  Tc/Sr ratio (Table 4): 0.736
  Tibia, % dose/1% body weight: 8.13 % Dose/1% Body weight
  Urine, % Dose: 48.39 % Dose
  W. Femur, % Dose in Whole Organ: 2.34 % Dose
  W. Tibia, % Dose in Whole Organ: 1.96 % Dose
[1]; AEDP 0.05 mg/kg
  Blood, % Dose in Whole Organ: 1.01 % Dose
  Blood, % dose/1% body weight: 0.144 % Dose/1% Body weight
  Bone Ave, % Dose/1% Body weight: 8.39 % Dose/1% Body weight
  Femur, % dose/1% body weight: 8.63 % Dose/1% Body weight
  Kidneys, % Dose in Whole Organ: 1.13 % Dose
  Kidneys, % dose/1% body weight: 1.83 % Dose/1% Body weight
  Liver, % Dose in Whole Organ: 0.806 % Dose
  Liver, % dose/1% body weight: 0.176 % Dose/1% Body weight
  Marrow, % Dose in Whole Organ: 0.549 % Dose
  Marrow, % dose/1% body weight: 0.250 % Dose/1% Body weight
  Muscle, % Dose in Whole Organ: 1.20 % Dose
  Muscle, % dose/1% body weight: 0.028 % Dose/1% Body weight
  Pelvis, % dose/1% body weight: 7.82 % Dose/1% Body weight
  Ratio of 99mTc/85Sr, Ave Bone: 0.683
  Ratio of 99mTc/85Sr, Blood: 0.409
  Ratio of 99mTc/85Sr, Femur: 0.687
  Ratio of 99mTc/85Sr, Kidney: 3.30
  Ratio of 99mTc/85Sr, Liver: 1.32
  Ratio of 99mTc/85Sr, Marrow: 1.18
  Ratio of 99mTc/85Sr, Muscle: 0.236
  Ratio of 99mTc/85Sr, Pelvis: 0.684
  Ratio of 99mTc/85Sr, Spine: 0.675
  Ratio of 99mTc/85Sr, Tibia: 0.681
  Spine, % dose/1% body weight: 7.80 % Dose/1% Body weight
  Tc/Sr ratio (Table 4): 0.680
  Tibia, % dose/1% body weight: 9.30 % Dose/1% Body weight
  Urine, % Dose: 44.21 % Dose
  W. Femur, % Dose in Whole Organ: 2.41 % Dose
  W. Tibia, % Dose in Whole Organ: 2.14 % Dose
[1]; AEDP 0.1 mg/kg
  Blood, % Dose in Whole Organ: 0.96 % Dose
  Blood, % dose/1% body weight: 0.137 % Dose/1% Body weight
  Bone Ave, % Dose/1% Body weight: 7.51 % Dose/1% Body weight
  Femur, % dose/1% body weight: 7.93 % Dose/1% Body weight
  Kidneys, % Dose in Whole Organ: 0.913 % Dose
  Kidneys, % dose/1% body weight: 1.28 % Dose/1% Body weight
  Liver, % Dose in Whole Organ: 0.309 % Dose
  Liver, % dose/1% body weight: 0.083 % Dose/1% Body weight
  Marrow, % Dose in Whole Organ: 0.211 % Dose
  Marrow, % dose/1% body weight: 0.096 % Dose/1% Body weight
  Muscle, % Dose in Whole Organ: 1.46 % Dose
  Muscle, % dose/1% body weight: 0.034 % Dose/1% Body weight
  Pelvis, % dose/1% body weight: 6.24 % Dose/1% Body weight
  Ratio of 99mTc/85Sr, Ave Bone: 0.716
  Ratio of 99mTc/85Sr, Blood: 0.409
  Ratio of 99mTc/85Sr, Femur: 0.714
  Ratio of 99mTc/85Sr, Kidney: 2.94
  Ratio of 99mTc/85Sr, Liver: 0.490
  Ratio of 99mTc/85Sr, Marrow: 0.621
  Ratio of 99mTc/85Sr, Muscle: 0.205
  Ratio of 99mTc/85Sr, Pelvis: 0.725
  Ratio of 99mTc/85Sr, Spine: 0.705
  Ratio of 99mTc/85Sr, Tibia: 0.721
  Spine, % dose/1% body weight: 7.36 % Dose/1% Body weight
  Tc/Sr ratio (Table 4): 0.717
  Tibia, % dose/1% body weight: 8.50 % Dose/1% Body weight
  Urine, % Dose: 38.8 % Dose
  W. Femur, % Dose in Whole Organ: 2.38 % Dose
  W. Tibia, % Dose in Whole Organ: 2.18 % Dose
[1]; AEDP 0.5 mg/kg
  Blood, % Dose in Whole Organ: 1.38 % Dose
  Blood, % dose/1% body weight: 0.197 % Dose/1% Body weight
  Bone Ave, % Dose/1% Body weight: 6.96 % Dose/1% Body weight
  Femur, % dose/1% body weight: 6.59 % Dose/1% Body weight
  Kidneys, % Dose in Whole Organ: 1.11 % Dose
  Kidneys, % dose/1% body weight: 2.11 % Dose/1% Body weight
  Liver, % Dose in Whole Organ: 0.216 % Dose
  Liver, % dose/1% body weight: 0.079 % Dose/1% Body weight
  Marrow, % Dose in Whole Organ: 0.23 % Dose
  Marrow, % dose/1% body weight: 0.104 % Dose/1% Body weight
  Muscle, % Dose in Whole Organ: 0.883 % Dose
  Muscle, % dose/1% body weight: 0.021 % Dose/1% Body weight
  Pelvis, % dose/1% body weight: 7.93 % Dose/1% Body weight
  Ratio of 99mTc/85Sr, Ave Bone: 0.644
  Ratio of 99mTc/85Sr, Blood: 0.280
  Ratio of 99mTc/85Sr, Femur: 0.628
  Ratio of 99mTc/85Sr, Kidney: 2.47
  Ratio of 99mTc/85Sr, Liver: 0.459
  Ratio of 99mTc/85Sr, Marrow: 0.500
  Ratio of 99mTc/85Sr, Muscle: 0.140
  Ratio of 99mTc/85Sr, Pelvis: 0.692
  Ratio of 99mTc/85Sr, Spine: 0.614
  Ratio of 99mTc/85Sr, Tibia: 0.632
  Spine, % dose/1% body weight: 6.05 % Dose/1% Body weight
  Tc/Sr ratio (Table 4): 0.645
  Tibia, % dose/1% body weight: 7.27 % Dose/1% Body weight
  Urine, % Dose: 48.85 % Dose
  W. Femur, % Dose in Whole Organ: 1.74 % Dose
  W. Tibia, % Dose in Whole Organ: 1.55 % Dose

## [18FH] [fluorine-18]
[2]
  half-life (radionuclide): 1.83 h

## [99Tc] [technitium-99m]
[2]
  half-life (radionuclide): 6 h
